Results published in patent publication US9290440B2, “Bicyclic compound” (TOA EIYO LTD., priority 2012, dated 2016).
Read-outs that look alike come from different tables or passages of the source.

Legend:
[1] = target: T1, human sGC α subunit and β subunit (Homo sapiens, UniProt Q02153); experiment: Maximum effect of sGC activating function (Ca2+ fluorescence in CHO-K1 cells expressing human sGC and mouse CNGA2); type: cell-based; settings: increase ratio of sGC activity vs control solution at 10 μmol/L test compound
T1 construct: expressed in transfected cells
T1 sequence (Q02153 1-619): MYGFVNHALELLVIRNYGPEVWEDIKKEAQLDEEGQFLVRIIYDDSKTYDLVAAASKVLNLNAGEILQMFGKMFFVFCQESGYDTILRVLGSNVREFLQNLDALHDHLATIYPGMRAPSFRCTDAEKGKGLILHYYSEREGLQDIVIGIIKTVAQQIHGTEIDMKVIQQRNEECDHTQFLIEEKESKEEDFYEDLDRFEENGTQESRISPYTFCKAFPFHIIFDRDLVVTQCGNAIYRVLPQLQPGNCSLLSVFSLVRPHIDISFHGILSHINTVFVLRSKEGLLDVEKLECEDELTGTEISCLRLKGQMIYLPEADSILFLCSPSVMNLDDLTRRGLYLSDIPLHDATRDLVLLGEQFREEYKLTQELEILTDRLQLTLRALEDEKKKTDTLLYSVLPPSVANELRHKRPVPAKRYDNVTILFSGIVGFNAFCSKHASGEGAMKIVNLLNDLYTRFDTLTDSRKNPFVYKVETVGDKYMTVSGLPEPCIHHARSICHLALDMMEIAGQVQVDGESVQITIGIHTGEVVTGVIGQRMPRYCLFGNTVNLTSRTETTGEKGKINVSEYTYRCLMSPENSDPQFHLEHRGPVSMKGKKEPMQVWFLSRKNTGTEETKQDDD
T1 sequence (Q02108 1-690 partner): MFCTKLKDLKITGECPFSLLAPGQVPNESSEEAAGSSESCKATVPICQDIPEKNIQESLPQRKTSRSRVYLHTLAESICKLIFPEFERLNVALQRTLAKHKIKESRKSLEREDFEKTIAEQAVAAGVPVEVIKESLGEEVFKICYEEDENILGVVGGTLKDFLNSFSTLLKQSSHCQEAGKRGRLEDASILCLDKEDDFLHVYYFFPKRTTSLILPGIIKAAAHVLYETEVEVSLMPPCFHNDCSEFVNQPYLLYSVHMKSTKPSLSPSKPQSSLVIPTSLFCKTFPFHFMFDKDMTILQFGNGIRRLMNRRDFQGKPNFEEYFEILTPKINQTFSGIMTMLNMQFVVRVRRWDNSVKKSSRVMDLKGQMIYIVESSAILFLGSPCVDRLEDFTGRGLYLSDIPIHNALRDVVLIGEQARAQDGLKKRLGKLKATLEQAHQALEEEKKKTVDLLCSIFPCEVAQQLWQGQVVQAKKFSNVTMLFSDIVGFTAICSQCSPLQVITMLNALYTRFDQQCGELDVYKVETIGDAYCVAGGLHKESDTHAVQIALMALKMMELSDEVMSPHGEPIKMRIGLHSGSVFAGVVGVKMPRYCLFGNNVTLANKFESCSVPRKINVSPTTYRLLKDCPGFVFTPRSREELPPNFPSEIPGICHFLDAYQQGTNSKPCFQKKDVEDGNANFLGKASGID
Experimental: (§1) For the assay, Chinese hamster ovary cells (CHO-K1 cells) in which human sGC α subunit and β subunit and mouse cyclic nucleotide gated channel (CNGA2) are stably expressed were used.
(§2) CHO-K1 cells in which human sGC and mouse CNGA2 are stably expressed were cultured at 37° C. in F-12 medium containing 10% (v/v) fetal bovine serum (FBS), penicillin (100 U/mL), streptomycin (100 μg/mL), G418 (250 μg/mL), and zeocin (250 μg/mL). The cells were suspended in the culture medium and seeded onto a 96-well plate, and then cultured at 37° C. for 24 hours. After washing with assay buffer 1 (140 mmol/L sodium chloride, 5 mmol/L potassium chloride, 0.5 mmol/L magnesium chloride, 0.01 mmol/L calcium chloride, 10 mmol/L glucose, 0.4 mmol/L magnesium sulfate, 10 mmol/L 4-(2-hydroxyethyl)piperazin-1-ylethane sulfonic acid, and 125 μmol/L sulfinpyrazone, pH 7.4), an indicator solution in which FURA2-AM as a fluorescent Ca^2+ indicator is dissolved at concentration of 5 μmol/L in assay buffer 1 was added followed by culture for 60 minutes at 37° C. The indicator solution was removed. After washing with assay buffer 1, the test compound solution was added and incubated for 10 minutes at room temperature. The plate was placed in a fluorometer (Flex Station II, Molecular Devices, LLC), and then the intracellular calcium concentration was measured as fluorescence intensity ratio which is obtained from each excitation wavelength (excitation wavelength of 340 nm and 380 nm and detection wavelength of 510 nm).
(§3) The test compound solution was prepared by dissolving each of the test compounds in DMSO to a concentration of 10 mmol/L, and then adding the assay buffer 2 (140 mmol/L sodium chloride, 5 mmol/L potassium chloride, 0.5 mmol/L magnesium chloride, 1 mmol/L calcium chloride, 10 mmol/L glucose, 0.4 mmol/L magnesium sulfate, 10 mmol/L 4-(2-hydroxyethyl)piperazin-1-ylethane sulfonic acid, 125 μmol/L sulfinpyrazone, 100 μmol/L isobutylmethylxanthine, 10 μmol/L 1H-[1,2,4]-oxadiazole[4,3-a]quinoxalin-1-one (hereinbelow, ODQ), pH 7.4) for dilution to have test concentration of 10 μmol/L. For the evaluation of a case in which ODQ is not contained, the same evaluation was performed except that ODQ is excluded from assay buffer 2. As a control solution, a DMSO solution was used instead of the test compound solution.
(§4) The activity of the test compound corresponds to the increase ratio (%) of the sGC activity at the time of adding the test compound solution with respect to the sGC activity at the time of adding the control solution, and it was calculated by dividing the fluorescence intensity ratio at the time of adding the test compound by the fluorescence intensity ratio of the control solution and subtracting the sGC activity (100%) at the time of adding the control solution.
In this assay, intracellular cGMP concentration increases as sGC is activated, and according to opening of CNGA2 following the increase of cGMP, intracellular Ca^2+ concentration increases. Thus, SGC activation can be measured by following the change in intracellular Ca^2+ concentration. […] Thus, in the absence of ODQ, the maximum sGC activating function including the heme-dependent activation can be evaluated while the heme-independent sGC activating function can be evaluated in the presence of ODQ.

[2] = target: T1, human sGC α subunit and β subunit; experiment: Heme-independent property of sGC activating function (EC50 ratio, CHO-K1 cells expressing human sGC and mouse CNGA2); type: cell-based; settings: EC50 in the absence of ODQ divided by EC50 in the presence of ODQ, sGC activation
Experimental: as §1, §2, §3, §4
For the representative compounds, activity was measured in the same manner as Test Example 1 at each test concentration of 0.0001, 0.001, 0.003, 0.01, 0.03, 0.1, 1, and 10 μmol/L.
The degree of heme-independent property of each test compound with regard to sGC activating function was obtained by dividing, for EC50 measured from the concentration-activation curve which has been established from the above, EC50 in the absence of ODQ by EC50 in the presence of ODQ. Specifically, the smaller the EC50 ratio is, the less the change in sGC activating function is, the change in the function being caused by the presence or absence of ODQ, and thus it is found to be more heme-independent.
EC50 value was obtained by measuring the activity of each compound to be tested at concentrations of 0.0001, 0.001, 0.003, 0.01, 0.03, 0.1, 1, and 10 μmol/L and performing the calculation using four-parameter logistics model using Assay Explorer (Accelrys).

[3] = tested on: abdominal aorta ring specimen; experiment: Evaluation of blood vessel relaxing function (phenylephrine-contracted abdominal aorta ring); settings: relaxation of rat abdominal aorta contracted with 1 μmol/L phenylephrine; without vs with 10 μmol/L ODQ
Experimental: The representative compounds of the present invention were evaluated by blood vessel relaxing function according to the following Test Example. In the assay, bleeding from the upper part of a heart of a rat (male, SD) was performed under anesthesia with pentobarbital (30 mg/kg) and then abdominal aorta was extracted. The connecting tissue adhered around blood vessel was removed from the abdominal aorta in an ice-cooled Krebs-Henseleit solution (KH solution) (118 mmol/L sodium chloride, 4.7 mmol/L potassium chloride, 1.2 mmol/L magnesium sulfate, 1.2 mmol/L potassium dihydrogen phosphate, 25 mmol/L sodium hydrogen carbonate, 2.5 mmol/L calcium chloride, and 10 mmol/L glucose, pH 7.4). After that, a ring specimen with length of 2 mm was prepared and fixed in 5 mL organ bath filled with a KH solution. The KH solution was kept at 37° C. and aerated with a mixture gas of 95% O2 and 5% CO2. The specimen was stabilized for 1 hour with static tension of 1 g. The KH solution was exchanged twice during that time. The tension on the specimen was recorded on a multi-channel recorder via pickup and amplifier. After the stabilization of the specimen, contraction was caused by using 1 μmol/L phenylephrine (Phe), and cumulative administration of each compound (0.001, 0.01, 0.03, 0.1, 0.3, 1, 3, 10, 30, 100, 1000, 10000 nmol/L) was performed. For the evaluation of a case in which 1H-1,2,4-oxadiazole-(4,3a)-quinoxalin-1-one (ODQ) is contained, 10 μmol/L ODQ was added 10 minutes before the Phe addition, and the same evaluation as above was performed.
EC50 value was calculated using four-parameter logistics model using Assay Explorer (Accelrys). The test compound solution was dissolved in DMSO such that the concentration of each test compound is 1000 times the final concentration.

[4] = ODQ not contained, read-out: Emax (%) ODQ− (Heme-dependent)
[5] = with 10 μmol/L ODQ, read-out: Emax (%) ODQ+ (Heme-independent)

Row | Emax at 10 µM [1, 4] | Emax at 10 µM [1, 5] | EC50 Ratio (ODQ−/ODQ+) [2] | EC50 Ratio (ODQ−/ODQ+) [3] | Compound
1 | 126% | 99.9% | 0.87 | – | O=C(O)CCCCN(CCc1ccccc1OCc1ccc(CCc2ccccc2)cc1)C1CCCc2nc(C(=O)O)ccc21 (stereo not drawn) [Example 6, 5-{N-(4-Carboxybutyl)-N-[2-[2-[4-(2-phenylethyl)benzyloxy]phenyl]ethyl]amino}-5,6,7,8-tetrahydroquinoline-2-carboxylic acid]
2 | 110% | 108% | 2.34 | – | O=C(O)CCCCN(CCc1ccccc1OCc1ccc(CCc2ccccc2)cc1)C1COc2cc(C(=O)O)ccc21 (stereo not drawn) [Example 7, 3-{N-(4-Carboxybutyl)-N-[2-[2-[4-(2-phenylethyl)benzyloxy]phenyl]ethyl]amino}-2,3-dihydrobenzofuran-6-carboxylic acid]
3 | 130% | 102% | 1.80 | – | O=C(O)CCCCN(CCc1ccccc1OCc1ccc(CCc2ccccc2)cc1)C1COCc2cc(C(=O)O)ccc21 (stereo not drawn) [Example 8, 4-{N-(4-Carboxybutyl)-N-[2-[2-[4-(2-phenylethyl)benzyloxy]phenyl]ethyl]amino}-isochromane-7-carboxylic acid]
4 | 99.1% | 101% | 1.73 | – | O=C(O)CCCCN(CCc1ccccc1OCc1ccc(OCc2ccccc2)cc1)C1CCCc2cc(C(=O)O)ccc21 (stereo not drawn) [Example 14, 5-{N-[2-[2-(4-Benzyloxybenzyloxyl)phenyl]ethyl]-N-(4-carboxybutyl)amino}-5,6,7,8-tetrahydronaphthalene-2-carboxylic acid]
5 | 126% | 104% | 1.15 | – | O=C(O)CCCCN(CCc1ccccc1OCc1ccc(/C=C/C2CCCCC2)cc1)C1CCCc2cc(C(=O)O)ccc21 (stereo not drawn) [Example 23, 5-{N-(4-Carboxybutyl)-N-[2-[2-[4-((E)-2-cyclohexylethenyl)benzyloxy]phenyl]ethyl]amino}-5,6,7,8-tetrahydronaphthalene-2-carboxylic acid]
6 | 113% | 96.6% | 1.84 | – | O=C(O)CCCCN(CCc1ccccc1OC[C@H]1CC[C@@H](CCc2ccccc2)CC1)C1CCCc2cc(C(=O)O)ccc21 (stereo partly drawn) [Example 27, 5-{N-(4-Carboxybutyl)-N-[2-[2-[cis-4-(2-phenylethyl)cyclohexylmethoxy]phenyl]ethyl]amino}-5,6,7,8-tetrahydronaphthalene-2-carboxylic acid]
7 | 86.7% | 122% | – | 4.3 | O=C(O)CCCCN(CCc1ccccc1OCc1ccc(C2CC2)cc1)C1CCCc2cc(C(=O)O)ccc21 (stereo not drawn) [Example 42, 5-{N-(4-Carboxybutyl)-N-[2-[2-(4-cyclopropylbenzyloxy)phenyl]ethyl]amino}-5,6,7,8-tetrahydronaphthalene-2-carboxylic acid]
8 | 90.3% | 107% | – | 5.5 | CC(C)c1ccc(COc2ccccc2CCN(CCCCC(=O)O)C2CCCc3cc(C(=O)O)ccc32)cc1 (stereo not drawn) [Example 43, 5-{N-(4-Carboxybutyl)-N-[2-[2-(4-isopropylbenzyloxy)phenyl]ethyl]amino}-5,6,7,8-tetrahydronaphthalene-2-carboxylic acid]
9 | 95.3% | 121% | – | 3.5 | C[C@@H](Oc1ccccc1CCN(CCCCC(=O)O)C1CCCc2cc(C(=O)O)ccc21)c1ccc(C(C)(C)C)cc1 (stereo partly drawn) [Example 45, 5-{N-[2-[2-[(1R)-1-(4-tert-Butylphenyl)ethoxy]phenyl]ethyl]-N-(4-carboxybutyl)amino}-5,6,7,8-tetrahydronaphthalene-2-carboxylic acid]
